As a reminder, the IC50 is the midpoint of a concentration-inhibition curve.

The target in one assay is Stromelysin-1 (Homo sapiens, UniProt P08254). Nature of the assay: Inhibition of matrix metalloprotease-3 (MMP-3).
For the next assay, the target named is T1, Interstitial collagenase (Homo sapiens, UniProt P03956).
T1 sequence (P03956 whole entry): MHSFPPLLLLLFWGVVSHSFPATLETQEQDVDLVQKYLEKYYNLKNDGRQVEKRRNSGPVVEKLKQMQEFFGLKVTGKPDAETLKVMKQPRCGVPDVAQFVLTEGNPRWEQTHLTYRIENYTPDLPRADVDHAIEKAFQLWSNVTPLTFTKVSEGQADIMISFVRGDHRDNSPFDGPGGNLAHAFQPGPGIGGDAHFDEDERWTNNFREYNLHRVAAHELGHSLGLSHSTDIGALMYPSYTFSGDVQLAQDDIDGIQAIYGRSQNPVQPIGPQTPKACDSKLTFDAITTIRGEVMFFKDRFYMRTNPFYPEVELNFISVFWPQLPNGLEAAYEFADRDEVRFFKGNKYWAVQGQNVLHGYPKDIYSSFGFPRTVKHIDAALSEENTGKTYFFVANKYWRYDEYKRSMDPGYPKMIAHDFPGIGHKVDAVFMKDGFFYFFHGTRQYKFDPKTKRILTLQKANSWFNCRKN
In words: Inhibition of matrix metalloprotease-1 (MMP-1).

Stromelysin-1, sequence (P08254 whole entry): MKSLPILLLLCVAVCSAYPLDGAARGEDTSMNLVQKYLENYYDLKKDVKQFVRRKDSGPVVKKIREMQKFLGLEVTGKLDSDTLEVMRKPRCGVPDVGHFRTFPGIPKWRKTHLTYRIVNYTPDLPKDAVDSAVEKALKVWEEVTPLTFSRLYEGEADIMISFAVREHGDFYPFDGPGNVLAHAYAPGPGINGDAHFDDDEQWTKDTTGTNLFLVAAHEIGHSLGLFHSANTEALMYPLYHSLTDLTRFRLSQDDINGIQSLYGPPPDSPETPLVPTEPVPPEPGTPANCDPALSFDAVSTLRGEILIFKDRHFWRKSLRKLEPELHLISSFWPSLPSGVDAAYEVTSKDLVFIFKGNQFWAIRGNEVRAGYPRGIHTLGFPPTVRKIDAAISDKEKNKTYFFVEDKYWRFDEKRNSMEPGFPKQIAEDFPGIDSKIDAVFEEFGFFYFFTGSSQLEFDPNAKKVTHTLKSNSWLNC

On to `CCCCCCCC[C@H](CC(=O)NO)C(=O)N[C@H]1CCCCN(CCOC)C1=O`, for which the half-inhibitory concentration (IC50) was found to be 0.25 µM against Stromelysin-1 and 1.89 µM on Interstitial collagenase.

On to `COC(=O)CN1CCCC[C@H](NC(=O)[C@@H](CC(=O)NO)CC(C)C)C1=O`, for which the half-inhibitory concentration (IC50) stood at 2.9 µM against Stromelysin-1 and 0.225 µM against Interstitial collagenase.

As to `CCCCCCCC[C@H](CC(=O)NO)C(=O)N[C@H]1CCCCN(CC(=O)OC)C1=O`, the IC50 was 1.04 µM against Stromelysin-1 and 0.011 µM at Interstitial collagenase.

Take `COCCN1CCCC[C@H](NC(=O)[C@H](CC(C)C)[C@@H](CCCO)C(=O)NO)C1=O`: the IC50 against Interstitial collagenase worked out at 0.051 µM.

Turning to `COC(=O)CN1CCCC[C@H](NC(=O)[C@H](CC(C)C)[C@@H](C)C(=O)NO)C1=O`, the IC50 against Stromelysin-1 amounted to 0.215 µM; against Interstitial collagenase it was 0.049 µM.

In the case of `CCCCCCCC[C@@H](C(=O)N[C@H]1CCCCN(CCOC)C1=O)[C@@H](C)C(=O)NO`, the IC50 on Stromelysin-1 turned out to be 0.03 µM; at Interstitial collagenase, 0.112 µM.

With `CCC[C@@H](C(=O)NO)[C@@H](CC(C)C)C(=O)N[C@H]1CCCCN(CCOC)C1=O`, the IC50 on Stromelysin-1 was determined as 0.094 µM; on Interstitial collagenase, 0.083 µM.

As for `CCCCCCCCC(C(=O)N[C@H]1CCCCN(CCOC)C1=O)C(C)C(=O)NO` (single isomer, unassigned), the IC50 amounted to 0.108 µM at Stromelysin-1 and 4.36 µM against Interstitial collagenase.

`CC(C)C[C@H](CC(=O)NO)C(=O)N[C@H]1CCCCN(CCCOc2ccccc2)C1=O`: the IC50 was determined as 1.42 µM against Stromelysin-1 and 0.14 µM at Interstitial collagenase.

Turning to `CC(C)C[C@H](CC(=O)NO)C(=O)N[C@H]1CCCCNC1=O`, the results for the IC50 against Stromelysin-1 and on Interstitial collagenase were 11.7 µM and 3.9 µM, respectively.

For `CC(C)C[C@H](CC(=O)NO)C(=O)N[C@H]1CCCCN(CCOc2ccccc2)C1=O`, the values for the IC50 on Stromelysin-1 and at Interstitial collagenase were 0.518 µM and 0.117 µM, respectively.

For `CCCCC[C@H](CC(=O)NO)C(=O)N[C@H]1CCCCN(CC(=O)OC)C1=O`, the IC50 against Stromelysin-1 was found to be 0.824 µM; against Interstitial collagenase it was 0.129 µM.

As to `CCC[C@@H](C(=O)NO)[C@@H](CC(C)C)C(=O)N[C@H]1CCCCN(CC(=O)OC)C1=O`, the values for the IC50 against Stromelysin-1 and against Interstitial collagenase were 0.058 µM and 0.096 µM, respectively.

For the compound `CCCCCCCC[C@@H](C(=O)N[C@H]1CCCCN(CC(=O)OC)C1=O)[C@@H](C)C(=O)NO`, the IC50 against Stromelysin-1 was found to be 0.021 µM; against Interstitial collagenase, 0.057 µM.

The values are drawn from ChEMBL document CHEMBL1130916, “Design and synthesis of conformationally-constrained MMP inhibitors” (Bioorg Med Chem Lett, 1998).
